Test results taken from US8445409B2, “Use of 5-benzyloxymethyl-1,2-isoxazoline derivatives as a herbicide” (Moghu Research Center Ltd., priority 2007, dated 2013).

Legend:
Annual bluegrass = experiment: Herbicidal activity at different growth stages, fresh weight suppression; format: in vivo; details: for Suppression ratio relative to the biomass of the untreated group: Annual bluegrass 1 leaf / Suppression ratio relative to the biomass of the untreated group: Annual bluegrass 2 leaf / Suppression ratio relative to the biomass of the untreated group: Annual bluegrass 3 leaf / Suppression ratio relative to the biomass of the untreated group: Annual bluegrass 4 leaf / Suppression ratio relative to the biomass of the untreated group: Annual bluegrass PRE: fresh weight two weeks after treatment
Procedure: To a cup pot having a surface area of 100 cm^2 wherein mixed soils including blend bed soil (Boonong, Horticultural Bed Soil No. 3) and sandy loam soil were filled (mixing ratio, 1:1), seeds of large crabgrass and annual bluegrass were sown consecutively at an one week interval. The pots were moistened by sub-irrigation, and kept in a greenhouse maintained at 25˜30° C. (day) or 15˜25° C. (night). The said weeds were grown to various growth stages from pre-emergence to the four-leaf stage. […] Spray volume was adjusted to 2,000 L/ha. The method to spray of the test substance and prepare spray solutions were the same as described above. The reference herbicide was used after it was diluted with 0.2% (v/v) Tween 20 aqueous solution. The test was conducted in a randomized block design with three replicates. Two weeks after the treatment, plant parts remained above the pot soil surface were cut and the fresh weight was weighed. Results are given by a suppression ratio relative to the biomass that was obtained from the untreated group (see, Table 3).

turfgrasses = experiment: Example 3-1, turfgrasses as a group; format: in vivo; details: 2 kg/ha or below
Text: (§1) Commercially available sod mats of zoysiagrass and bentgrass, Kentucky bluegrass, and perennial ryegrass were purchased. After cutting each turf sod mat in a size of 10 cm×20 cm, it was transplanted to a rectangular plastic pot having a surface area of 300 cm^2 wherein mixed soils including blend of a bed soil (Boonong, Horticultural Nursery Soil No. 3) and sandy loam soil were filled (mixing ratio, 1:1). After transplanting, the grass was mowed (0.5˜1.0 cm in height) once a week, and kept for one month in a greenhouse maintained at 25˜30° C. (day) or 15˜25° C. (night). Then three strips of 1 cm width were removed by excision with a scissor. The open space was filled with a new soil, and seeds of large crabgrass, annual bluegrass, or goosegrass were sown. The pots were kept in a greenhouse. When the said weeds were grown up to the 3 leaf stage, another set was prepared in the same method. The first set represented post-emergence (POST) and the second set represented pre-emergence (PRE) stages of the weeds (large crabgrass, annual bluegrass, goosegrass). Then the test compound was applied at 0.25, 0.5. 1.0, 2.0, and 4.0 kg/ha. […] Four weeks after the spray of the test substance, phytotoxicity to the turfgrass and herbicidal activity to the said weeds were visually evaluated based on 0 to 100 scale (0: no phytotoxic effect, 100: completely killed). […]

Fall panicum = experiment: Upland pot test, pre-/post-emergence spray, visual rating; format: in vivo, fall panicum (PANDI); details: 2 weeks after spray, 0-10 scale (10=completely killed)
Text: (§2) To a rectangular plastic pot having a surface area of 300 cm^2, mixed soils including blend bed soil (Boonong, Horticultural Bed Soil No. 3) and sandy loam soil were filled (mixing ratio, 1:1). Seeds of the eight different types of weeds including gramineous weed such as barnyardgrass, large crabgrass, green foxtail, fall panicum, and broadleaf weed such as common cocklebur, velvetleaf, Indian joint-vetch, and morningglory were sown. To the other pot containing the same soil mixture, seeds of the five different types of crops including corn, soybean, cotton, wheat and rice were sown. Pots were kept in a greenhouse of which temperature was maintained at 25˜30° C. (day) or 15˜25° C. (night), and regularly watered.
(§3) After fourteen days and when the crops and the weeds reached their three-leaf stage, the other set of a crop pot and a weed pot were prepared by the same method as described above. Then, “test substance” was sprayed thereto. In this case, spray treatment to the plants after they have grown for two weeks corresponded to post-emergence treatment while spray treatment to the seeds right after the sowing corresponded to pre-emergence treatment. Spray was carried out by using a track sprayer (R&D Sprayer, USA) equipped with a Teejet 8002 nozzle (Spraying Systems Co., USA). Spray volume was adjusted to 300 L/ha. The spray solution was prepared by dissolving the “test substance” in acetone and adding the same volume of 0.2% (v/v) Tween 20 aqueous solution. Dosage of the test substance was 500, 250, 125, 62.5 or 31.3 g/ha. Two weeks after the spray of the test substance, efficacy and phytotoxic effect to the crops and the weeds were visually measured based on a 0 to 10 scale (0: no efficacy, 10: completely killed).

Foxtail = experiment: as above; format: in vivo, green foxtail (SETVI); details: 2 weeks after spray, 0-10 scale (10=completely killed)
Text: as §2, §3

Cotton = experiment: as above; format: in vivo, cotton (GOSHI); details: for Visual measurement: Crops, Cotton: 2 weeks after spray, 0-10 scale (10=completely killed)
Text: as §2, §3

[1] = tested on: all the tested gramineous weeds; experiment: Example 3-1, gramineous weeds as a group; format: in vivo, large crabgrass, annual bluegrass, goosegrass; details: PRE and POST timings, 0.25 kg/ha to 4 kg/ha
Text: as §1

[2] = post-emergence foliar spray at three leaf stage, 31.2 g/ha
[3] = post-emergence foliar spray at three leaf stage, 62.5 g/ha
[4] = post-emergence foliar spray at three leaf stage, 125 g/ha
[5] = post-emergence foliar spray at three leaf stage, 250 g/ha
[6] = post-emergence foliar spray at three leaf stage, 500 g/ha
[7] = pre-emergence soil treatment, 31.2 g/ha
[8] = pre-emergence soil treatment, 62.5 g/ha
[9] = pre-emergence soil treatment, 125 g/ha
[10] = pre-emergence soil treatment, 250 g/ha
[11] = pre-emergence soil treatment, 500 g/ha

Cc1ccsc1C1=NOC(C)(COCc2c(F)cccc2F)C1 (stereo not drawn) [test substance, 5-(2,6-difluorobenzyl)oxymethyl-5-methyl-3-(4-methylthiophen-5-yl)-1,2-isoxazoline]
Suppression ratio relative to the biomass of the untreated group: Annual bluegrass 1 leaf (Annual bluegrass; 1 kg/ha): 97%
Suppression ratio relative to the biomass of the untreated group: Annual bluegrass 2 leaf (Annual bluegrass; 1 kg/ha): 93%
Suppression ratio relative to the biomass of the untreated group: Annual bluegrass 3 leaf (Annual bluegrass; 1 kg/ha): 66%
Suppression ratio relative to the biomass of the untreated group: Annual bluegrass 4 leaf (Annual bluegrass; 1 kg/ha): 55%
Suppression ratio relative to the biomass of the untreated group: Annual bluegrass PRE (Annual bluegrass; 1 kg/ha): 100%
Suppression ratio relative to the biomass of the untreated group: Annual bluegrass 1 leaf (Annual bluegrass; 2 kg/ha): 99%
Suppression ratio relative to the biomass of the untreated group: Annual bluegrass 2 leaf (Annual bluegrass; 2 kg/ha): 95%
Suppression ratio relative to the biomass of the untreated group: Annual bluegrass 3 leaf (Annual bluegrass; 2 kg/ha): 69%
Suppression ratio relative to the biomass of the untreated group: Annual bluegrass 4 leaf (Annual bluegrass; 2 kg/ha): 60%
Suppression ratio relative to the biomass of the untreated group: Annual bluegrass PRE (Annual bluegrass; 2 kg/ha): 100%
Suppression ratio relative to the biomass of the untreated group: Annual bluegrass 1 leaf (Annual bluegrass; .12 kg/ha): 37%
Suppression ratio relative to the biomass of the untreated group: Annual bluegrass 2 leaf (Annual bluegrass; .12 kg/ha): 35%
Suppression ratio relative to the biomass of the untreated group: Annual bluegrass 3 leaf (Annual bluegrass; .12 kg/ha): 0%
Suppression ratio relative to the biomass of the untreated group: Annual bluegrass 4 leaf (Annual bluegrass; .12 kg/ha): 0%
Suppression ratio relative to the biomass of the untreated group: Annual bluegrass PRE (Annual bluegrass; .12 kg/ha): 95%
Suppression ratio relative to the biomass of the untreated group: Annual bluegrass 1 leaf (Annual bluegrass; .25 kg/ha): 95%
Suppression ratio relative to the biomass of the untreated group: Annual bluegrass 2 leaf (Annual bluegrass; .25 kg/ha): 82%
Suppression ratio relative to the biomass of the untreated group: Annual bluegrass 3 leaf (Annual bluegrass; .25 kg/ha): 18%
Suppression ratio relative to the biomass of the untreated group: Annual bluegrass 4 leaf (Annual bluegrass; .25 kg/ha): 2%
Suppression ratio relative to the biomass of the untreated group: Annual bluegrass PRE (Annual bluegrass; .25 kg/ha): 100%
Suppression ratio relative to the biomass of the untreated group: Annual bluegrass 1 leaf (Annual bluegrass; .5 kg/ha): 96%
Suppression ratio relative to the biomass of the untreated group: Annual bluegrass 2 leaf (Annual bluegrass; .5 kg/ha): 90%
Suppression ratio relative to the biomass of the untreated group: Annual bluegrass 3 leaf (Annual bluegrass; .5 kg/ha): 61%
Suppression ratio relative to the biomass of the untreated group: Annual bluegrass 4 leaf (Annual bluegrass; .5 kg/ha): 37%
Suppression ratio relative to the biomass of the untreated group: Annual bluegrass PRE (Annual bluegrass; .5 kg/ha): 100%
Suppression of annual bluegrass (Annual bluegrass; PRE to 2-leaf stage, 0.5 kg/ha or above): ≥ 90%
Control of annual bluegrass (in words) (Annual bluegrass; over three-leaf stage): suppressed but were not completely controlled
Visible injury to turfgrasses (in words) (turfgrasses): did not show any visible injury
Visual measurement: Gramineous weed, Fall panicum (Fall panicum; [2]): 0
Visual measurement: Gramineous weed, Fall panicum (Fall panicum; [3]): 1
Visual measurement: Gramineous weed, Fall panicum (Fall panicum; [4]): 3
Visual measurement: Gramineous weed, Fall panicum (Fall panicum; [5]): 6
Visual measurement: Gramineous weed, Fall panicum (Fall panicum; [6]): 8
Visual measurement: Gramineous weed, Fall panicum (Fall panicum; [7]): 5
Visual measurement: Gramineous weed, Fall panicum (Fall panicum; [8]): 8
Visual measurement: Gramineous weed, Fall panicum (Fall panicum; [9]): 9
Visual measurement: Gramineous weed, Fall panicum (Fall panicum; [10]): 9
Visual measurement: Gramineous weed, Fall panicum (Fall panicum; [11]): 10
Visual measurement: Gramineous weed, Foxtail (Foxtail; [2]): 0
Visual measurement: Gramineous weed, Foxtail (Foxtail; [3]): 1
Visual measurement: Gramineous weed, Foxtail (Foxtail; [4]): 2
Visual measurement: Gramineous weed, Foxtail (Foxtail; [5]): 5
Visual measurement: Gramineous weed, Foxtail (Foxtail; [6]): 9
Visual measurement: Gramineous weed, Foxtail (Foxtail; [7]): 1
Visual measurement: Gramineous weed, Foxtail (Foxtail; [8]): 3
Visual measurement: Gramineous weed, Foxtail (Foxtail; [9]): 9
Visual measurement: Gramineous weed, Foxtail (Foxtail; [10]): 9
Visual measurement: Gramineous weed, Foxtail (Foxtail; [11]): 10
Visual measurement: Crops, Cotton (Cotton; [2]): 0
Visual measurement: Crops, Cotton (Cotton; [3]): 0
Visual measurement: Crops, Cotton (Cotton; [4]): 0
Visual measurement: Crops, Cotton (Cotton; [5]): 0
Visual measurement: Crops, Cotton (Cotton; [6]): 0
Safety to cotton (in words) (Cotton; post-emergence treatment): safe
Visual measurement: Crops, Cotton (Cotton; [7]): 0
Visual measurement: Crops, Cotton (Cotton; [8]): 0
Visual measurement: Crops, Cotton (Cotton; [9]): 0
Visual measurement: Crops, Cotton (Cotton; [10]): 0
Visual measurement: Crops, Cotton (Cotton; [11]): 0
Control of tested gramineous weeds (in words) [1]: very effectively
